Measured values from patent publication US20230085307A1, “PYRIDAZINONE COMPOUND AND HERBICIDE” (NISSAN CHEMICAL CORPORATION, priority 2019, published 2023).

What was measured:
barnyard grass [1] = assay: Test Example 3: herbicidal effect by foliage application, Wagner pot (Table 18, symbol H); format: in vivo, barnyard grass (Echinochloa crus-galli); details: 320 g/ha
Outline: (§1)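 Plants were sown in alluvial soil held under 0.1–0.5 cm standing water and grown 14 days in a greenhouse at 25–30 °C. An emulsifiable formulation, water-diluted to the set dose, was then sprayed onto the foliage, and effects were scored three weeks later using previously defined criteria.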

blackgrass [2] = assay: Test Example 5: herbicidal effect by foliage application, plastic box (Table 20, symbol J); format: in vivo, blackgrass (Alopecurus myosuroides); details: amount of applied herbicide 320 g/ha; foliage application after 14-day growth; evaluated three weeks after application
Outline: (§2)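 Sow seeds spot-wise in sterilized diluvial soil; cover with ~1.5 cm soil. Grow 14 days in greenhouse, 25° C. to 30° C. Spray foliage with emulsion diluted to predetermined amount. Rate effect after 3 weeks.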

velvetleaf [3] = assay: Test Example 4: herbicidal effect by soil treatment (Table 19, symbol M); format: in vivo, velvetleaf (Abutilon theophrasti); details: amount of applied herbicide 320 g/ha
Outline: (§3)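 Soil-surface application: an emulsion agent diluted with water to the predetermined dose is sprayed uniformly over seeds lying under roughly 1.5 cm of sterilized diluvial soil. Boxes stay in a greenhouse at 25° C. to 30° C. Three weeks later, each species is graded on previously defined criteria.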

velvetleaf [4] = assay: Test Example 5: herbicidal effect by foliage application, plastic box (Table 20, symbol M); format: in vivo, velvetleaf (Abutilon theophrasti); details: amount of applied herbicide 320 g/ha; foliage application after 14-day growth; evaluated three weeks after application
Outline: as §2

barnyard grass [5] = assay: Test Example 5: herbicidal effect by foliage application, plastic box (Table 20, symbol H); format: in vivo, barnyard grass (Echinochloa crus-galli); details: amount of applied herbicide 320 g/ha; foliage application after 14-day growth; evaluated three weeks after application
Outline: as §2

redroot pigweed [6] = assay: Test Example 4: herbicidal effect by soil treatment (Table 19, symbol N); format: in vivo, redroot pigweed (Amaranthus retroflexus); details: amount of applied herbicide 320 g/ha
Outline: as §3

rice flat sedge = assay: Test Example 3: herbicidal effect by foliage application, Wagner pot (Table 18, symbol E); format: in vivo, rice flat sedge (Cyperus iria); details: 320 g/ha
Outline: as §1

barnyard grass [7] = assay: Test Example 4: herbicidal effect by soil treatment (Table 19, symbol H); format: in vivo, barnyard grass (Echinochloa crus-galli); details: amount of applied herbicide 320 g/ha
Outline: as §3

Italian ryegrass [8] = assay: Test Example 5: herbicidal effect by foliage application, plastic box (Table 20, symbol K); format: in vivo, Italian ryegrass (Lolium multiflorum); details: amount of applied herbicide 320 g/ha; foliage application after 14-day growth; evaluated three weeks after application
Outline: as §2

persian speedwell [9] = assay: Test Example 5: herbicidal effect by foliage application, plastic box (Table 20, symbol R); format: in vivo, Persian speedwell (Veronica persica); details: amount of applied herbicide 320 g/ha; foliage application after 14-day growth; evaluated three weeks after application
Outline: as §2

wild oat [10] = assay: Test Example 4: herbicidal effect by soil treatment (Table 19, symbol I); format: in vivo, wild oat (Avena fatua); details: amount of applied herbicide 320 g/ha
Outline: as §3

Italian ryegrass [11] = assay: Test Example 4: herbicidal effect by soil treatment (Table 19, symbol K); format: in vivo, Italian ryegrass (Lolium multiflorum); details: amount of applied herbicide 320 g/ha
Outline: as §3

chickweed [12] = assay: Test Example 5: herbicidal effect by foliage application, plastic box (Table 20, symbol P); format: in vivo, common chickweed (Stellaria media); details: amount of applied herbicide 320 g/ha; foliage application after 14-day growth; evaluated three weeks after application
Outline: as §2

false cleavers = assay: Test Example 5: herbicidal effect by foliage application, plastic box (Table 20, symbol Q); format: in vivo, false cleavers (Galium spurium); details: amount of applied herbicide 320 g/ha; foliage application after 14-day growth; evaluated three weeks after application
Outline: as §2

green foxtail [13] = assay: Test Example 4: herbicidal effect by soil treatment (Table 19, symbol G); format: in vivo, green foxtail (Setaria viridis); details: amount of applied herbicide 320 g/ha
Outline: as §3

windgrass [14] = assay: Test Example 5: herbicidal effect by foliage application, plastic box (Table 20, symbol L); format: in vivo, windgrass (Apera spica-venti); details: amount of applied herbicide 320 g/ha; foliage application after 14-day growth; evaluated three weeks after application
Outline: as §2

windgrass [15] = assay: Test Example 4: herbicidal effect by soil treatment (Table 19, symbol L); format: in vivo, windgrass (Apera spica-venti); details: amount of applied herbicide 320 g/ha
Outline: as §3

oval-leafed pondweed = assay: Test Example 1: herbicidal activity, application before weed generation under submerged conditions (Table 16, symbol C); format: in vivo, oval-leafed pondweed (Monochoria vaginalis); details: amount of applied herbicide 320 g/ha
Outline: (§4)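 Emulsion formulation, water-diluted to set dose, was put onto the flooded surface (4 cm depth, alluvial soil) the same day weeds were sown and 2.5-leaf rice transplanted. After 3 weeks at 25-30 °C under glass, each species was rated 0 (≤5% kill) to 5 (≥90% kill).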

redroot pigweed [16] = assay: Test Example 5: herbicidal effect by foliage application, plastic box (Table 20, symbol N); format: in vivo, redroot pigweed (Amaranthus retroflexus); details: amount of applied herbicide 320 g/ha; foliage application after 14-day growth; evaluated three weeks after application
Outline: as §2

Chinese sprangletop = assay: Test Example 3: herbicidal effect by foliage application, Wagner pot (Table 18, symbol D); format: in vivo, chinese sprangletop (Leptochloa chinensis); details: 320 g/ha
Outline: as §1

southern crabgrass [17] = assay: Test Example 4: herbicidal effect by soil treatment (Table 19, symbol F); format: in vivo, southern crabgrass (Digitaria ciliaris); details: amount of applied herbicide 320 g/ha
Outline: as §3

green foxtail [18] = assay: Test Example 5: herbicidal effect by foliage application, plastic box (Table 20, symbol G); format: in vivo, green foxtail (Setaria viridis); details: amount of applied herbicide 320 g/ha; foliage application after 14-day growth; evaluated three weeks after application
Outline: as §2

lambsquarters [19] = assay: Test Example 4: herbicidal effect by soil treatment (Table 19, symbol O); format: in vivo, lambsquarters (Chenopodium album); details: amount of applied herbicide 320 g/ha
Outline: as §3

Japanese bulrush = assay: Test Example 1: herbicidal activity, application before weed generation under submerged conditions (Table 16, symbol B); format: in vivo, Japanese bulrush (Schoenoplectus juncoides); details: amount of applied herbicide 320 g/ha
Outline: as §4

southern crabgrass [20] = assay: Test Example 5: herbicidal effect by foliage application, plastic box (Table 20, symbol F); format: in vivo, southern crabgrass (Digitaria ciliaris); details: amount of applied herbicide 320 g/ha; foliage application after 14-day growth; evaluated three weeks after application
Outline: as §2

lambsquarters [21] = assay: Test Example 5: herbicidal effect by foliage application, plastic box (Table 20, symbol O); format: in vivo, lambsquarters (Chenopodium album); details: amount of applied herbicide 320 g/ha; foliage application after 14-day growth; evaluated three weeks after application
Outline: as §2

chickweed [22] = assay: Test Example 4: herbicidal effect by soil treatment (Table 19, symbol P); format: in vivo, common chickweed (Stellaria media); details: amount of applied herbicide 320 g/ha
Outline: as §3

blackgrass [23] = assay: Test Example 4: herbicidal effect by soil treatment (Table 19, symbol J); format: in vivo, blackgrass (Alopecurus myosuroides); details: amount of applied herbicide 320 g/ha
Outline: as §3

late watergrass = assay: Test Example 1: herbicidal activity, application before weed generation under submerged conditions (Table 16, symbol A); format: in vivo, late watergrass (Echinochloa oryzicola); details: amount of applied herbicide 320 g/ha
Outline: as §4

wild oat [24] = assay: Test Example 5: herbicidal effect by foliage application, plastic box (Table 20, symbol I); format: in vivo, wild oat (Avena fatua); details: amount of applied herbicide 320 g/ha; foliage application after 14-day growth; evaluated three weeks after application
Outline: as §2

persian speedwell [25] = assay: Test Example 4: herbicidal effect by soil treatment (Table 19, symbol R); format: in vivo, Persian speedwell (Veronica persica); details: amount of applied herbicide 320 g/ha
Outline: as §3

COc1ccccc1-c1sc2cc(F)c(F)cc2c1-c1c(O)c(C)nn(C)c1=O [5-011]
herbicidal effect on barnyard grass (H) (barnyard grass [1]): 5 (Herbicidal rate of 90% or more (almost completely withered)) | Herbicidal effect by foliage application, J: blackgrass (blackgrass [2]): 3 (Herbicidal rate of 40% or more and less than 70%) | M: velvetleaf, herbicidal effect grade (velvetleaf [3]): 5 (Herbicidal rate of 90% or more (almost completely withered)) | Herbicidal effect by foliage application, M: velvetleaf (velvetleaf [4]): 5 (Herbicidal rate of 90% or more (almost completely withered)) | Herbicidal effect by foliage application, H: barnyard grass (barnyard grass [5]): 4 (Herbicidal rate of 70% or more and less than 90%) | N: redroot pigweed, herbicidal effect grade (redroot pigweed [6]): 5 (Herbicidal rate of 90% or more (almost completely withered)) | herbicidal effect on rice flat sedge (E) (rice flat sedge): 5 (Herbicidal rate of 90% or more (almost completely withered)) | H: barnyard grass, herbicidal effect grade (barnyard grass [7]): 4 (Herbicidal rate of 70% or more and less than 90%) | Herbicidal effect by foliage application, K: Italian ryegrass (Italian ryegrass [8]): 3 (Herbicidal rate of 40% or more and less than 70%) | Herbicidal effect by foliage application, R: persian speedwell (persian speedwell [9]): 5 (Herbicidal rate of 90% or more (almost completely withered)) | I: wild oat, herbicidal effect grade (wild oat [10]): 0 (Herbicidal rate of 5% or less (almost no effect)) | K: Italian ryegrass, herbicidal effect grade (Italian ryegrass [11]): 3 (Herbicidal rate of 40% or more and less than 70%) | Herbicidal effect by foliage application, P: chickweed (chickweed [12]): 5 (Herbicidal rate of 90% or more (almost completely withered)) | Herbicidal effect by foliage application, Q: false cleavers (false cleavers): 5 (Herbicidal rate of 90% or more (almost completely withered)) | G: green foxtail, herbicidal effect grade (green foxtail [13]): 4 (Herbicidal rate of 70% or more and less than 90%) | Herbicidal effect by foliage application, L: windgrass (windgrass [14]): 4 (Herbicidal rate of 70% or more and less than 90%) | L: windgrass, herbicidal effect grade (windgrass [15]): 4 (Herbicidal rate of 70% or more and less than 90%) | Herbicidal effect, C: oval-leafed pondweed (oval-leafed pondweed): 0 (Herbicidal rate of 5% or less (almost no effect)) | Herbicidal effect by foliage application, N: redroot pigweed (redroot pigweed [16]): 5 (Herbicidal rate of 90% or more (almost completely withered)) | herbicidal effect on Chinese sprangletop (D) (Chinese sprangletop): 3 (Herbicidal rate of 40% or more and less than 70%) | F: southern crabgrass, herbicidal effect grade (southern crabgrass [17]): 3 (Herbicidal rate of 40% or more and less than 70%) | Herbicidal effect by foliage application, G: green foxtail (green foxtail [18]): 5 (Herbicidal rate of 90% or more (almost completely withered)) | O: lambsquarters, herbicidal effect grade (lambsquarters [19]): 5 (Herbicidal rate of 90% or more (almost completely withered)) | Herbicidal effect, B: Japanese bulrush (Japanese bulrush): 2 (Herbicidal rate of 20% or more and less than 40%) | Herbicidal effect by foliage application, F: southern crabgrass (southern crabgrass [20]): 2 (Herbicidal rate of 20% or more and less than 40%) | Herbicidal effect by foliage application, O: lambsquarters (lambsquarters [21]): 4 (Herbicidal rate of 70% or more and less than 90%) | P: chickweed, herbicidal effect grade (chickweed [22]): 3 (Herbicidal rate of 40% or more and less than 70%) | J: blackgrass, herbicidal effect grade (blackgrass [23]): 3 (Herbicidal rate of 40% or more and less than 70%) | Herbicidal effect, A: late watergrass (late watergrass): 2 (Herbicidal rate of 20% or more and less than 40%) | Herbicidal effect by foliage application, I: wild oat (wild oat [24]): 3 (Herbicidal rate of 40% or more and less than 70%) | R: persian speedwell, herbicidal effect grade (persian speedwell [25]): 5 (Herbicidal rate of 90% or more (almost completely withered))
